Source: the NIST ThermoML archive (doi:10.1016/j.tca.2013.07.012)

Experiments:
[1] = 101 kPa, Liquid, Vibrating tube method
[2] = xn = mol fraction of the nth substance listed; conditions: 101 kPa, Liquid, Vibrating tube method, x2 = 0

O [water]
[1]
Conditions	mass density [kg/m3]
274.15 K	999.9
275.15 K	999.94
276.15 K	999.96
277.15 K	999.97
278.15 K	999.96
279.15 K	999.94
280.15 K	999.9
281.15 K	999.85
282.15 K	999.78
283.15 K	999.7
323.15 K	988.03
333.15 K	983.19
348.15 K	974.84

O [water] + OCC(O)CO
[2]
Conditions	mass density [kg/m3]
274.15 K	999.9
275.15 K	999.94
276.15 K	999.96
277.15 K	999.97
278.15 K	999.96
279.15 K	999.94
280.15 K	999.9
281.15 K	999.85
282.15 K	999.78
283.15 K	999.7
323.15 K	988.03
333.15 K	983.19
348.15 K	974.84

OCC(O)CO [glycerol]
[1]
Conditions	mass density [kg/m3]
278.15 K	1270.87
288.15 K	1264.4
293.15 K	1260.99
298.15 K	1257.91
308.15 K	1251.66
323.15 K	1242.11
333.15 K	1235.71
348.15 K	1225.79
